Results from patent US20250197359A1, “CANNABINOID RECEPTOR MODULATING COMPOUNDS” (The U.S.A., as Represented by the Secretary, Department of …, priority 2022, published 2025).

Tests used:
Brain/CB1 = biological target: T1, Brain/CB1 (Mus musculus, UniProt P47746); assay: Functional GTPγS binding, Brain/CB1; format: biochemical
T1 construct: from tissue; host or cells: mouse brain membranes
From the text: Furthermore, the intermediates urea compounds 8a-m were chlorinated with phosphorus oxychloride in the presence of DIPEA base to form imidoyl chloride intermediate and reacted with acetamidine hydrochloride/methyl carbamimidothioate iodide/methyl carbamimidoselenoate iodide and other amines to furnish the target compounds (10a-34b) (Scheme 2, FIG. 2, Scheme 5, FIG. 5). The urea derivatives were converted to the thiourea derivatives 9a-9d by employing sodium thiosulfate. Compound 8a-b, 8e-f were converted to corresponding thiourea by employing sodium thiosulfate dissolved in water dioxane mixture and the reaction was heated to 85° C. for 2 h. […] The binding constant for the synthesized compounds were determined by using radioligand binding assay in mouse brain membranes as well as the target compounds were evaluated in vitro at the human CB1 receptor, stably expressed into Chinese hamster ovary (CHO) cells as well as mouse brain membrane CB1.

CB1 = CB1 (UniProt P21554); assay: CB1 radioligand binding assay; parameters: species or system human; conditions: read-out: Ki (CB1)
Protocol: The target compounds were evaluated in vitro at the human CB1 receptor, stably expressed into Chinese hamster ovary (CHO) cells by utilizing radioligand binding studies.
The binding constant for the synthesized compounds were determined by using radioligand binding assay in mouse brain membranes as well as the target compounds were evaluated in vitro at the human CB1 receptor, stably expressed into Chinese hamster ovary (CHO) cells as well as mouse brain membrane CB1. […]

T1 sequence (P47746 whole entry): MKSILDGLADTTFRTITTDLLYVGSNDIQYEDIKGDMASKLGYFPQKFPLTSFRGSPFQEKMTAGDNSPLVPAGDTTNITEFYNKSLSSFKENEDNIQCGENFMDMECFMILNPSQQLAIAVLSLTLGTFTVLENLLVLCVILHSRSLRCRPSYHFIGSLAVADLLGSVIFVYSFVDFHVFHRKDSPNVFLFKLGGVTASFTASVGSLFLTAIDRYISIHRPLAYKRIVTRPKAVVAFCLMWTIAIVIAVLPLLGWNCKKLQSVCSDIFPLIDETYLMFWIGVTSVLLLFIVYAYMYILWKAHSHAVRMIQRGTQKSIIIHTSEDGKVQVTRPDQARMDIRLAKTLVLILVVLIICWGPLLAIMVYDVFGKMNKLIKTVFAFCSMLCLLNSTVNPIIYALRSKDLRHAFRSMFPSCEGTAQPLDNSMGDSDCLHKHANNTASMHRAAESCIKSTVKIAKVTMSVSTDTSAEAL

| SMILES | IC50 (Brain/CB1) | Ki (CB1) |
| --- | --- | --- |
| C/C(N)=N\C(=N\S(=O)(=O)c1ccc(C(F)(F)F)cc1)N1CCC(c2ccccc2)C(c2ccc(Cl)cc2)=N1 (single isomer, unassigned) [Compound 10bE1, (Z)—N—((E)-1-aminoethylidene)-3-(4-chlorophenyl)-4-phenyl-N′-((4-(trifluoromethyl)phenyl)sulfonyl)-5,6-dihydropyridazine-1 (4H)-carboximidamide] | > 1000 nM |  |
| C/C(N)=N\C(=N\S(=O)(=O)c1ccc(C(F)(F)F)cc1)N1CCC(c2ccccc2)C(c2ccc(Cl)cc2)=N1 (single isomer, unassigned) [Compound 10bE2, (Z)—N—((E)-1-aminoethylidene)-3-(4-chlorophenyl)-4-phenyl-N′-((4-(trifluoromethyl)phenyl)sulfonyl)-5,6-dihydropyridazine-1 (4H)-carboximidamide] | 34 nM |  |
| CC(C)(C)/C(N)=N/C(=N/S(=O)(=O)c1ccc(C(F)(F)F)cc1)N1CCC(c2ccccc2)C(c2ccc(Cl)cc2)=N1 (single isomer, unassigned) [Compound 10oE1, (Z)—N—((Z)-1-amino-2,2-dimethylpropylidene)-3-(4-chlorophenyl)-4-phenyl-N′-((4-(trifluoromethyl)phenyl)sulfonyl)-5,6-dihydropyridazine-1 (4H)-carboximidamide] | 222 nM | 351 nM |
| CC(C)(C)/C(N)=N/C(=N/S(=O)(=O)c1ccc(C(F)(F)F)cc1)N1CCC(c2ccccc2)C(c2ccc(Cl)cc2)=N1 (single isomer, unassigned) [Compound 10oE2, (Z)—N—((Z)-1-amino-2,2-dimethylpropylidene)-3-(4-chlorophenyl)-4-phenyl-N′-((4-(trifluoromethyl)phenyl)sulfonyl)-5,6-dihydropyridazine-1 (4H)-carboximidamide] | 11 nM | 7.3 nM |
| N/C(=N\C(=N\S(=O)(=O)c1ccc(C(F)(F)F)cc1)N1CCC(c2ccccc2)C(c2ccc(Cl)cc2)=N1)c1ccccc1F (single isomer, unassigned) [Compound 10tE1, (Z)—N—((Z)-amino (2-fluorophenyl)methylene)-3-(4-chlorophenyl)-4-phenyl-N′-((4-(trifluoromethyl)phenyl)sulfonyl)-5,6-dihydropyridazine-1 (4H)-carboximidamide] | 51 nM |  |
| N/C(=N\C(=N\S(=O)(=O)c1ccc(C(F)(F)F)cc1)N1CCC(c2ccccc2)C(c2ccc(Cl)cc2)=N1)c1ccccc1F (single isomer, unassigned) [Compound 10tE2, (Z)—N—((Z)-amino (2-fluorophenyl)methylene)-3-(4-chlorophenyl)-4-phenyl-N′-((4-(trifluoromethyl)phenyl)sulfonyl)-5,6-dihydropyridazine-1 (4H)-carboximidamide] | 18 nM |  |
| N/C(=N\C(=N\S(=O)(=O)c1ccc(C(F)(F)F)cc1)N1CCC(c2ccccc2)C(c2ccc(Cl)cc2)=N1)c1ccccn1 (single isomer, unassigned) [Compound 10vE1, (Z)—N—((Z)-amino (pyridin-2-yl)methylene)-3-(4-chlorophenyl)-4-phenyl-N′-((4-(trifluoromethyl)phenyl)sulfonyl)-5,6-dihydropyridazine-1 (4H)-carboximidamide] | 107 nM | 11.5 nM |
| N/C(=N\C(=N\S(=O)(=O)c1ccc(C(F)(F)F)cc1)N1CCC(c2ccccc2)C(c2ccc(Cl)cc2)=N1)c1ccccn1 (single isomer, unassigned) [Compound 10vE2, (Z)—N—((Z)-amino (pyridin-2-yl)methylene)-3-(4-chlorophenyl)-4-phenyl-N′-((4-(trifluoromethyl)phenyl)sulfonyl)-5,6-dihydropyridazine-1 (4H)-carboximidamide] | 24 nM | 5 nM |
| CC(C)C(N/C(=N/S(=O)(=O)c1ccc(C(F)(F)F)cc1)N1CCC(c2ccccc2)C(c2ccc(Br)cc2)=N1)C(N)=O (single isomer, unassigned) [Compound 26a, (Z)-2-(3-(4-bromophenyl)-4-phenyl-N′-((4-(trifluoromethyl)phenyl)sulfonyl)-1,4,5,6-tetrahydropyridazine-1-carboximidamido)-3-methylbutanamide] | > 1000 nM |  |
| CC(C)C(N/C(=N/S(=O)(=O)c1ccc(C(F)(F)F)cc1)N1CCC(c2ccccc2)C(c2ccc(Br)cc2)=N1)C(N)=O (single isomer, unassigned) [Compound 26b, (Z)-2-(3-(4-bromophenyl)-4-phenyl-N′-((4-(trifluoromethyl)phenyl)sulfonyl)-1,4,5,6-tetrahydropyridazine-1-carboximidamido)-3-methylbutanamide] | 9.5 nM |  |
| CCN(CC)/C(N)=N/C(=N/S(=O)(=O)c1ccc(C(F)(F)F)cc1)N1CCC(c2ccccc2)C(c2ccc(Cl)cc2)=N1 (centres unmarked) [Compound 18, (Z)—N—((E)-amino (diethylamino)methylene)-3-(4-chlorophenyl)-4-phenyl-N′-((4-(trifluoromethyl)phenyl)sulfonyl)-5,6-dihydropyridazine-1 (4H)-carboximidamide] |  | 536 nM |
| CC(C)(C)OC(=O)N/C(N)=N\C(=N\S(=O)(=O)c1ccc(C(F)(F)F)cc1)N1CCC(c2ccccc2)C(c2ccc(Cl)cc2)=N1 (centres unmarked) [Compound 19] |  | 383 nM |
| O=S(=O)(/N=C(\NC12CC3CC(CC(C3)C1)C2)N1CCC(c2ccccc2)C(c2ccc(Cl)cc2)=N1)c1ccc(C(F)(F)F)cc1 (centres unmarked) [Compound 20, (E)-N-((3s,5s,7s)-adamantan-1-yl)-3-(4-chlorophenyl)-4-phenyl-N′-((4-(trifluoromethyl)phenyl)sulfonyl)-5,6-dihydropyridazine-1 (4H)-carboximidamide] |  | 80.9 nM |
| O=C(O)CCCN/C(=N/S(=O)(=O)c1ccc(C(F)(F)F)cc1)N1CCC(c2ccccc2)C(c2ccc(Cl)cc2)=N1 (centres unmarked) [Compound 21, (Z)-4-(3-(4-chlorophenyl)-4-phenyl-N′-((4-(trifluoromethyl)phenyl)sulfonyl)-1,4,5,6-tetrahydropyridazine-1-carboximidamido) butanoic acid] |  | 579 nM |
| NC(=S)NN/C(=N/S(=O)(=O)c1ccc(C(F)(F)F)cc1)N1CCC(c2ccccc2)C(c2ccc(Cl)cc2)=N1 (centres unmarked) [Compound 22, (Z)-2-((3-(4-chlorophenyl)-4-phenyl-5,6-dihydropyridazin-1 (4H)-yl)(((4-(trifluoromethyl)phenyl)sulfonyl)imino)methyl) hydrazine-1-carbothioamide] |  | 575 nM |

Other lines, results leading:

| IC50 (Brain/CB1) | Ki (CB1) | SMILES |
| --- | --- | --- |
| > 1000 nM |  | COc1ccc(S(=O)(=O)/N=C(/NC(C(N)=O)C(C)C)N2CCC(c3ccccc3)C(c3ccc(Cl)cc3)=N2)cc1 (single isomer, unassigned) [Compound 27a, (Z)-2-(3-(4-chlorophenyl)-N′-((4-methoxyphenyl)sulfonyl)-4-phenyl-1,4,5,6-tetrahydropyridazine-1-carboximidamido)-3-methylbutanamide] |
| 51 nM |  | COc1ccc(S(=O)(=O)/N=C(/NC(C(N)=O)C(C)C)N2CCC(c3ccccc3)C(c3ccc(Cl)cc3)=N2)cc1 (single isomer, unassigned) [Compound 27b, (Z)-2-(3-(4-chlorophenyl)-N′-((4-methoxyphenyl)sulfonyl)-4-phenyl-1,4,5,6-tetrahydropyridazine-1-carboximidamido)-3-methylbutanamide] |
| > 1000 nM |  | CC(C)C(N/C(=N/S(=O)(=O)c1ccccc1)N1CCC(c2ccccc2)C(c2ccc(Cl)cc2)=N1)C(N)=O (single isomer, unassigned) [Compound 28a, (Z)-2-(3-(4-chlorophenyl)-4-phenyl-N′-(phenylsulfonyl)-1,4,5,6-tetrahydropyridazine-1-carboximidamido)-3-methylbutanamide] |
| 336 nM |  | CC(C)C(N/C(=N/S(=O)(=O)c1ccccc1)N1CCC(c2ccccc2)C(c2ccc(Cl)cc2)=N1)C(N)=O (single isomer, unassigned) [Compound 28b, (Z)-2-(3-(4-chlorophenyl)-4-phenyl-N′-(phenylsulfonyl)-1,4,5,6-tetrahydropyridazine-1-carboximidamido)-3-methylbutanamide] |
| > 1000 nM | 907 nM | CC(C)C(N/C(=N/S(=O)(=O)c1ccc(Cl)cc1)N1CCC(c2ccccc2)C(c2ccc(Cl)cc2)=N1)C(N)=O (single isomer, unassigned) [Compound 30a, (Z)-2-(3-(4-chlorophenyl)-N′-((4-chlorophenyl)sulfonyl)-4-phenyl-1,4,5,6-tetrahydropyridazine-1-carboximidamido)-3-methylbutanamide] |
| 39 nM | 18.2 nM | CC(C)C(N/C(=N/S(=O)(=O)c1ccc(Cl)cc1)N1CCC(c2ccccc2)C(c2ccc(Cl)cc2)=N1)C(N)=O (single isomer, unassigned) [Compound 30b, (Z)-2-(3-(4-chlorophenyl)-N′-((4-chlorophenyl)sulfonyl)-4-phenyl-1,4,5,6-tetrahydropyridazine-1-carboximidamido)-3-methylbutanamide] |
| 863 nM | 96.9 nM | CC(N/C(=N/S(=O)(=O)c1ccc(C(F)(F)F)cc1)N1CCC(c2ccccc2)C(c2ccc(Cl)cc2)=N1)C(N)=O (single isomer, unassigned) [Compound 31a, (Z)-2-(3-(4-chlorophenyl)-4-phenyl-N′-((4-(trifluoromethyl)phenyl)sulfonyl)-1,4,5,6-tetrahydropyridazine-1-carboximidamido) propenamide] |
